# Assay results from patent US20190224201A1, “PHARMACEUTICAL COMPOSITION COMPRISING NEPTINIB OR SALT THEREOF AND METHOD FOR CONTROLLING IMPURITY THEREOF” (SHENZHEN NEPTUNUS PHARMACEUTICAL RESEARCH INSTITUTE CO., …, priority 2016, published 2019).
# Key:
# Type in all cases: physicochemical
# [1] = Accelerated stability test, detection of impurity A and total impurity by HPLC; conditions: active ingredient alone, accelerated stability test at 40° C. for 6 months
# Text: The method for detecting impurity A and total impurity was shown as follows:
# Equipment: Agilent 1260 series;
# Column: XBridge Shield RP18 column (100×4.6 mm, 3.5 μm);
# Mobile phase A: 0.05 mol/L potassium dihydrogen phosphate solution (adjusted to pH 7.2 with sodium hydroxide solution)-acetonitrile (20:80);
# Mobile phase B: 0.05 mol/L potassium dihydrogen phosphate solution (adjusted to pH 7.2 with sodium hydroxide solution)-acetonitrile (40:60);
# Detection wavelength: 247 nm;
# Column temperature: 30° C.;
# Solvent: acetonitrile-water (50:50).
# [2] = Risk assessment of the API and excipients compatibility
# Text: Level 1 (low risk): maximum single impurity is less than 0.1% and total impurity is less than 0.2%;
# Level 2 (medium risk): maximum single impurity is 0.1-0.2% or total impurity is 0.2%-0.4%;
# Level 3 (high risk): maximum single impurity is more than 0.2% or total impurity is more than 0.4%.
# [3] = API and excipients compatibility study (10 days of stress testing of mixed powders)
# [4] = Day 10, Illumination (4500 ± 5001x)
compound,measurement,setting,value
"CCOc1cc2ncnc(Nc3ccc(F)c(Cl)c3)c2cc1NC(=O)/C=C/CN(C)C [API, (E)-N-(4-((3-chloro-4-fluorophenyl)amino)-7-ethoxyquinazolin-6-yl)-4-(dimethylamino)but-2-enamide]",change in the content of impurities in the active ingredient,[1],no significant change
same,Risk level assessment value 60° C.,"[2]; 60° C., 10 days stress testing",1 (Level 1 (low risk): maximum single impurity is less than 0.1% and total impurity is less than 0.2%)
same,Risk level assessment value Illumination,"[2]; Illumination, 10 days stress testing",2 (Level 2 (medium risk): maximum single impurity is 0.1-0.2% or total impurity is 0.2%-0.4%)
same,Risk level assessment value RH75%,"[2]; RH75%, 10 days stress testing",1 (Level 1 (low risk): maximum single impurity is less than 0.1% and total impurity is less than 0.2%)
same,Risk level assessment value RH92.5%,"[2]; RH92.5%, 10 days stress testing",1 (Level 1 (low risk): maximum single impurity is less than 0.1% and total impurity is less than 0.2%)
same,Risk level assessment value Total,"[2]; sum over RH75%, RH92.5%, 60° C., Illumination",5
same,Maximum single impurity (%),[3]; Day 0,0.02%
same,Total impurity (%),[3]; Day 0,0.02%
same,Maximum single impurity (%),"[3]; Day 10, 60° C. ± 2° C.",0.02%
same,Total impurity (%),"[3]; Day 10, 60° C. ± 2° C.",0.04%
same,Maximum single impurity (%),[3]; [4],0.12%
same,Total impurity (%),[3]; [4],0.14%
same,Maximum single impurity (%),"[3]; Day 10, RH75% ± 5%",0.02%
same,Total impurity (%),"[3]; Day 10, RH75% ± 5%",0.02%
same,Maximum single impurity (%),"[3]; Day 10, RH92.5% ± 5%",0.02%
same,Total impurity (%),"[3]; Day 10, RH92.5% ± 5%",0.02%
